Test results from PubChem BioAssay AID2060600 (Molecular Pharmacology Branch, DTP, NCI, 2025).

Tested on: 996289-038-R-J1-PDC complex spheroid viability
Test: Anticancer human tumor 996289-038-R-J1-PDC patient-derived colon adenocarcinoma cell line growth inhibition [CLK]
Conditions: for IC50: curve of first compound; for viability, T/C: stronger effect = lower value
In short: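 Multi-cell-type spheroids combined patient-derived tumor cells with HUVEC endothelial cells and human mesenchymal stem cells. Paired agents were dosed in half-log steps down from about clinical Cmax, or from 10 microM where Cmax was unknown.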
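Note: spheroids exposed to the agents for 7 days before readout.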

COc1ccc([C@@H](O)c2cc(-c3ncnc4cc(N5CCOCC5)ccc34)c(F)cc2Cl)nn1 + CNC(=O)c1ccc(Nc2nc(OC3CCCC3)c3c(-c4ccc5nc(C)oc5c4)c[nH]c3n2)c(OC)c1
IC50 (second compound 0.0316 µM): > 10000 nM | IC50 (second compound 0.1 µM): > 10000 nM | IC50 (second compound 0.316 µM): 5720 nM | IC50 (second compound 1 µM): 2470 nM | IC50 (second compound 3.16 µM): 1410 nM | IC50 (second compound 10 µM): 1130 nM | viability, T/C (second compound 0.0316 µM, first compound 0.0316 µM): 117% | viability, T/C (second compound 0.0316 µM, first compound 0.1 µM): 117% | viability, T/C (second compound 0.0316 µM, first compound 0.316 µM): 101% | viability, T/C (second compound 0.0316 µM, first compound 1 µM): 102% | viability, T/C (second compound 0.0316 µM, first compound 3.16 µM): 75.4% | viability, T/C (second compound 0.0316 µM, first compound 10 µM): 54.7% | viability, T/C (second compound 0.1 µM, first compound 0.0316 µM): 121% | viability, T/C (second compound 0.1 µM, first compound 0.1 µM): 112% | viability, T/C (second compound 0.1 µM, first compound 0.316 µM): 99.1% | viability, T/C (second compound 0.1 µM, first compound 1 µM): 101% | viability, T/C (second compound 0.1 µM, first compound 3.16 µM): 86.8% | viability, T/C (second compound 0.1 µM, first compound 10 µM): 52.7% | viability, T/C (second compound 0.316 µM, first compound 0.0316 µM): 82.3% | viability, T/C (second compound 0.316 µM, first compound 0.1 µM): 73.9% | viability, T/C (second compound 0.316 µM, first compound 0.316 µM): 68.9% | viability, T/C (second compound 0.316 µM, first compound 1 µM): 62.5% | viability, T/C (second compound 0.316 µM, first compound 3.16 µM): 66% | viability, T/C (second compound 0.316 µM, first compound 10 µM): 39.3% | viability, T/C (second compound 1 µM, first compound 0.0316 µM): 67.8% | viability, T/C (second compound 1 µM, first compound 0.1 µM): 58.5% | viability, T/C (second compound 1 µM, first compound 0.316 µM): 58.4% | viability, T/C (second compound 1 µM, first compound 1 µM): 55.7% | viability, T/C (second compound 1 µM, first compound 3.16 µM): 50.6% | viability, T/C (second compound 1 µM, first compound 10 µM): 26.9% | viability, T/C (second compound 3.16 µM, first compound 0.0316 µM): 56.2% | viability, T/C (second compound 3.16 µM, first compound 0.1 µM): 59.4% | viability, T/C (second compound 3.16 µM, first compound 0.316 µM): 51.9% | viability, T/C (second compound 3.16 µM, first compound 1 µM): 52% | viability, T/C (second compound 3.16 µM, first compound 3.16 µM): 45.7% | viability, T/C (second compound 3.16 µM, first compound 10 µM): 25.9% | viability, T/C (second compound 10 µM, first compound 0.0316 µM): 56% | viability, T/C (second compound 10 µM, first compound 0.1 µM): 57% | viability, T/C (second compound 10 µM, first compound 0.316 µM): 52.3% | viability, T/C (second compound 10 µM, first compound 1 µM): 50.2% | viability, T/C (second compound 10 µM, first compound 3.16 µM): 44.1% | viability, T/C (second compound 10 µM, first compound 10 µM): 27.2%
